In patent US9908897B2, “Spirocyclic derivatives” (CHRONOS THERAPEUTICS LIMITED, priority 2014, dated 2018):

Experiments:
[1] = target: human dopamine transporter (DAT) (Homo sapiens (Human), UniProt Q01959); experiment: Scintillation Proximity Assay (SPA) competition binding, human DAT; settings: recombinant hDAT-CHO membranes, [3H]WIN-35,428
Description: (§1) Measure of Affinity to the Human Transporters DAT, NET and SERT
In the context of the present invention pKi values (corresponding to the antilogarithm of Ki) are used instead of Ki; pKi are only estimated to be accurate to about 0.3 log unit.
(§2) Scintillation Proximity Assay (SPA) for Human DAT, NET and SERT Binding
(§3) Chinese Hamster Ovary (CHO) cells stably expressing either human DAT (hDAT-CHO) or human NET (hNET-CHO) or human SERT (hSERT-CHO) are used for the membrane preparations for radioligand binding assays using Scintillation proximity Assay (SPA) technique. Each cell line is cultured independently in F-12K Nutrient Mixture containing 10% of Fetal Bovine Serum (FBS) supplemented with 450 μg/ml G-418. When cells are at 70-80% of confluence 3 mM Na Butyrate was added to the cell culture medium. After 24 h of incubation, the culture medium was removed and the cells detached with Versene (DAT) or by scraping (NET and SERT). Cell suspension is centrifuged at 41,000 g for 10 minutes at 4° C. The resultant pellets are re-suspended in 15 volumes of Ice-cold buffer (20 mM HEPES, 145 mM NaCl, 5 mM KCl, pH7.3), homogenized using an Ultra Turrax homogeniser and centrifuged as before. The resultant membrane pellets are re-suspended in up to 15 volume of ice-cold buffer, incubated for 20 minutes at 37-C and centrifuged as before at 41,000 g. The final membrane pellets are re-suspended into 5-10 volumes of ice-cold buffer, dispensed into 0.5 ml aliquots and stored at −80° C. until use. Protein concentration for each preparation is determined using Bio-Rad Protein Assay kit.
(§4) The affinity of the compounds of the invention to the human DAT or NET or SERT transporters is assessed by using the [^3H]WIN-35,428 or [^3H]nisoxetine or [^3H]citalopram binding assays in recombinant human DAT, NET and SERT membranes with the SPA technology. The final assay volume is 50 μL in 384 well plates.
(§5) Briefly, 0.5 μL of test compound in neat DMSO or 0.5 μL of DMSO for total binding (TB) or 0.5 μL of indatraline 1 mM (10 μM final concentration) for non specific binding (NSB) are added to the assay plate. 50 μL of the SPA mixture is added to each well, containing: 30 μg/mL or 10 μg/mL or 25 μg/mL DAT, NET, SERT membranes, respectively; 5 nM [^3H]WIN-35,428 or 5 nM [^3H]nisoxetine or 1 nM [^3H]citalopram, for DAT, NET, SERT assay, respectively; 2.5 mg/mL or 1 mg/mL or 4 mg/mL WGA-PVT SPA beads (PerkinElmer RPNQ0001, for DAT, NET, SERT assay, respectively. All components are added to Assay Buffer (20 mM HEPES pH 7.4, 145 mM NaCl, 5 mM KCl, 0.01% Pluronic F-127). 0.02% BSA was used for DAT binding only. Plates are sealed with Topseal A and centrifuged 1 min, 800 rpm. Plates are loaded into a 1450 Microbeta TriLux (Perkin-Elmer) plate reader and the radioactivity counted after at least 4 hrs or overnight incubation at room temperature. Curve fitting and IC50 estimations are performed using a four parameter model in XLfit (IDBS, Guilford, UK) for Microdoft Excel (Microsoft, Redmond, Wash.).

[2] = target: human norepinephrine transporter (NET) (Homo sapiens (Human), UniProt P23975); experiment: Scintillation Proximity Assay (SPA) competition binding, human NET; settings: recombinant hNET-CHO membranes, [3H]nisoxetine
Chain of human norepinephrine transporter (NET) (P23975 whole entry): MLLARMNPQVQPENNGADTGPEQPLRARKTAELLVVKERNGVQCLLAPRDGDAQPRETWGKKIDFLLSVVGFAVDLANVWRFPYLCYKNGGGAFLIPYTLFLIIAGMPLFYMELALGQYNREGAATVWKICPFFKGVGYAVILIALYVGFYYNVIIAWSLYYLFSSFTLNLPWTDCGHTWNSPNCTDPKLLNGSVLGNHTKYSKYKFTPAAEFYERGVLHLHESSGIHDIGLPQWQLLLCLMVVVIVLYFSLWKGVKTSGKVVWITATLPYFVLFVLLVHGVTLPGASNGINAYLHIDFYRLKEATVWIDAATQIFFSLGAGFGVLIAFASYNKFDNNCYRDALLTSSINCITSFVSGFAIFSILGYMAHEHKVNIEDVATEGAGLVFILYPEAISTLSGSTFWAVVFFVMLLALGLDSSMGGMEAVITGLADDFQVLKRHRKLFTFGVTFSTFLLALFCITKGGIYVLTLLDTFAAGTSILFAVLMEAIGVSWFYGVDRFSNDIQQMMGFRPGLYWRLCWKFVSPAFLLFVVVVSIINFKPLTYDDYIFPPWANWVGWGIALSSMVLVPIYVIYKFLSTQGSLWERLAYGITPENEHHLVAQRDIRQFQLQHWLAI
Description: as §1
(§6) Affinity is expressed in terms of inhibition constant (Ki) of the compounds of the invention for DAT, NET and SERT, and it is typically calculated from the IC50 values obtained in competition experiments using Cheng and Prusoff equation (Cheng and Prusoff, Biochem. Pharmacol. 22:3099, 1973). In the context of the present invention pKi values (corresponding to the antilogarithm of Ki) are used instead of Ki; pKi are only estimated to be accurate to about 0.3 log unit.
as §2, §3, §4, §5

[3] = target: human serotonin transporter (SERT) (Homo sapiens (Human), UniProt P31645); experiment: Scintillation Proximity Assay (SPA) competition binding, human SERT; settings: recombinant hSERT-CHO membranes, [3H]citalopram
Chain of human serotonin transporter (SERT) (P31645 whole entry): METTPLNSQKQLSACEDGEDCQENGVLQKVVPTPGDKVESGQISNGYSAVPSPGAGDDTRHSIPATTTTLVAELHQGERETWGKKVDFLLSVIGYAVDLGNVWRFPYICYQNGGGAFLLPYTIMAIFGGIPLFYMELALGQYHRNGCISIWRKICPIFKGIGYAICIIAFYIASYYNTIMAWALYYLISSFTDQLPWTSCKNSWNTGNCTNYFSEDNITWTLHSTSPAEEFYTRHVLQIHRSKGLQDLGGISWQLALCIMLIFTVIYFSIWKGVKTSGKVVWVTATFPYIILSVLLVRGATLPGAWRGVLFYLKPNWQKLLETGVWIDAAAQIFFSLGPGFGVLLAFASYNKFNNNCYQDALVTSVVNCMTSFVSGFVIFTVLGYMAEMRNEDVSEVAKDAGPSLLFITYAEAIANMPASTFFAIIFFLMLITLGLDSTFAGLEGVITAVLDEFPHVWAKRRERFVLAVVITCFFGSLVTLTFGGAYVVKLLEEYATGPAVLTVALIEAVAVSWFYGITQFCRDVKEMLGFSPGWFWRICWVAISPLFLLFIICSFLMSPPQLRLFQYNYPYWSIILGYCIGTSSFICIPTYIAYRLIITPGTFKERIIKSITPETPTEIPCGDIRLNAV
Description: as §1, §6, §2, §3, §4, §5

[4] = target: human ERG potassium channel (hERG) (Homo sapiens (Human), UniProt Q12809); experiment: hERG tail current recording, Rapid ICE automated patch-clamp; assay type: cell-based; settings: HEK293 cells stably transfected with hERG
Chain of human ERG potassium channel (hERG) (Q12809 whole entry): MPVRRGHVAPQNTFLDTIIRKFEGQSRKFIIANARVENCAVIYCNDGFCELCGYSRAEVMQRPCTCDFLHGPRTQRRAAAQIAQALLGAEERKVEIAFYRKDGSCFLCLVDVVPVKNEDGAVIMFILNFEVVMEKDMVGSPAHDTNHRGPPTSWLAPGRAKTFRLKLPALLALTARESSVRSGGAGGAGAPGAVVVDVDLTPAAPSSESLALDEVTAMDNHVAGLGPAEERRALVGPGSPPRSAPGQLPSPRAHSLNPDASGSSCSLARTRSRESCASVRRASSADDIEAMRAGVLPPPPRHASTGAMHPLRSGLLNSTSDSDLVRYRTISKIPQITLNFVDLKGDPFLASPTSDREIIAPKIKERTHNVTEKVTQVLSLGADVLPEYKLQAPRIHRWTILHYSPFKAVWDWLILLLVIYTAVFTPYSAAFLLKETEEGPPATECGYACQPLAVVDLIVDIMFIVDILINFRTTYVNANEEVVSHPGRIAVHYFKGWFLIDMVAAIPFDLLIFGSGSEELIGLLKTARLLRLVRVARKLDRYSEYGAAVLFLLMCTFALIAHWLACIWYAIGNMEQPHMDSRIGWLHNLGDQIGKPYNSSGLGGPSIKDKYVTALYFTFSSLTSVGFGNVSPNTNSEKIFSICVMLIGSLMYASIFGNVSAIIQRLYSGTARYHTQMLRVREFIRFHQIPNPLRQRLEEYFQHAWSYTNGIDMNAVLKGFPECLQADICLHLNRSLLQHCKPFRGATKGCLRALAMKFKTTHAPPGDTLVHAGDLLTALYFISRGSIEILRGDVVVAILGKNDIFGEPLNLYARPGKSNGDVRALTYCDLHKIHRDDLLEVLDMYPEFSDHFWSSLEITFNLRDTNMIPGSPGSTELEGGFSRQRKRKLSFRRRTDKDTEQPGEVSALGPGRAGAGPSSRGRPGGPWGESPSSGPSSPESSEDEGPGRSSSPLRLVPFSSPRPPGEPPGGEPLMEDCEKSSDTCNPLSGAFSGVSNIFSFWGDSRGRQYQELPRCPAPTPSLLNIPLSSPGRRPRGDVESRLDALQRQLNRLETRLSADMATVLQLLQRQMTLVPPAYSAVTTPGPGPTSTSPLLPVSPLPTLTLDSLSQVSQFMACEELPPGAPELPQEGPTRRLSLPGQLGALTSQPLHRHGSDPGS
Procedure: Measure of the Effect on hERG Channel by Tail Current Recording Using In Vitro Rapid ICE™
The potency of the compounds of the invention in inhibiting human ERG potassium channel (hERG) tail current is assessed in a recombinant HEK293 cell line stably transfected with hERG cDNA using Rapid ICE™ (Rapid Ion Channel Electrophysiology) assay. Rapid ICE™ is an automated patch-clamp assay utilizing the PatchXpress 7000A system (Molecular Devices Corporation) or the QPatch HTX system (Sophion Bioscience A/S).
Briefly cells are cultivated for 24 to 72 hours before recordings in minimum essential medium supplemented with 10% FBS, 1% non-essential amino acids, 1% sodium pyruvate, 2 mM L-glutamine. The day of the experiment cells are detached with TrypLE and prepared to be loaded on the instrument. For PatchXpress cells are finally resuspended in 150 μl of Extracellular Buffer whereas for QPatch cells are resuspended in 7 ml Serum-Free Media containing 25 mM Hepes and Soybean trypsin inhibitor and immediately placed in the cell storage tank of the machine. The composition of the Extracellular Buffer is (mM): NaCl 137; KCl 4; CaCl2 1.8; MgCl2 1.0; D-glucose 10; N 2 hydroxyethylpiperazine-N′-2-ethanesulfonic acid (HEPES) 10; pH 7.4 with 1 M NaOH. The composition of the pipette solution is (mM): KCl 130; MgCl2 1.0; Ethylene glycol-bis(β-aminoethyl ether)-N,N,N′,N′-tetraacetic acid (EGTA) 5; MgATP 5; HEPES 10; pH 7.2 with 1 M KOH. The voltage protocol includes the following steps: step from −80 mV to −50 mV for 200 ms, +20 mV for 4.8 s, step to −50 mV for 5 s then step to the holding potential of −80 mV. Compounds of the invention are dissolved in DMSO and diluted in Extracellular Buffer to achieve final test concentrations (0.1, 1 and 10 μM) in 0.1% DMSO. The voltage protocol is run and recorded continuously during the experiment. The vehicle, corresponding to 0.1% DMSO in Extracellular Buffer, is then applied for 3 min followed by the test substance in triplicate. The standard combined exposure time is 5 min. The average of tail current amplitude values recorded from 4 sequential voltage pulses is used to calculate for each cell the effect of the test substance by calculating the residual current (% control) compared with vehicle pre-treatment. Data are reported as % inhibition for each concentration tested and IC50 values are estimated using DataXpress or QPatch software. At least two cells are tested, more if results diverge.

Chain of human dopamine transporter (DAT) (Q01959 whole entry): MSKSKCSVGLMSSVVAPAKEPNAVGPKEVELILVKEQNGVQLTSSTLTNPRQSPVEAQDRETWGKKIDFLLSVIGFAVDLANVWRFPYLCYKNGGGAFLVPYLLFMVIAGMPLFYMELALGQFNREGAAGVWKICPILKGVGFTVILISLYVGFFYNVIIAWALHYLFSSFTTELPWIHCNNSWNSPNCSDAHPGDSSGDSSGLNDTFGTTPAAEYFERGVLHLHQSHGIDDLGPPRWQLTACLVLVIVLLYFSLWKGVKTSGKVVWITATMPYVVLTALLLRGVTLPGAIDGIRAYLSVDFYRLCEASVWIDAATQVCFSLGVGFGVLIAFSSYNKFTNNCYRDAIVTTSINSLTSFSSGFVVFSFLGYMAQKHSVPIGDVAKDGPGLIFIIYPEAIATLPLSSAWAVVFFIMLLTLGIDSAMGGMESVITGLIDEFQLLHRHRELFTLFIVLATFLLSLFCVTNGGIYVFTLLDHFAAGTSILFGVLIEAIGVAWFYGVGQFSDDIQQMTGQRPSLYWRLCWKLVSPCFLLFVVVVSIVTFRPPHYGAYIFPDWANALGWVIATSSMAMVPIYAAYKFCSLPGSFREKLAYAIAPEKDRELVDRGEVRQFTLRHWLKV

SMILES | pIC50 DAT [1] | pIC50 NET [2] | pIC50 SERT [3] | pIC50 hERG [4]
Fc1cccc(Oc2cc(F)c(F)cc2N2CCC3(CC2)CNCCO3)c1 [Example 1, 9-[4,5-difluoro-2-(3-fluorophenoxy)phenyl]-1-oxa-4,9-diazaspiro[5.5]undecane] | 7.96 | 5.69 | 6.44 | 6.0
Fc1cccc(Oc2ccccc2N2CCC3(CC2)CNCCO3)c1 [Example 4, 9-[2-(3-fluorophenoxy)phenyl]-1-oxa-4,9-diazaspiro[5.5]undecane] | 7.31 | 6.13 | 6.24 | 5.8
N#Cc1ccc(Oc2ccccc2)c(N2CCC3(CC2)CNCCO3)c1 [Example 5, 3-{1-oxa-4,9-diazaspiro[5.5]undecan-9-yl}-4-phenoxybenzonitrile] | 6.82 | 6.19 | 7.63 | 6.2
Fc1cccc(Oc2cccc(N3CCC4(CC3)CNCCO4)c2)c1 [Example 7, 9-[3-(3-fluorophenoxy)phenyl]-1-oxa-4,9-diazaspiro[5.5]undecane] | 7.54 | 6.33 | 5.99 | 5.8
Fc1cccc(Oc2cc(F)cc(N3CCC4(CC3)CNCCO4)c2)c1 [Example 8, 9-[3-fluoro-5-(3-fluorophenoxy)phenyl]-1-oxa-4,9-diazaspiro[5.5]undecane] | 8.25 | 6.90 | 7.10 | 6.3
Fc1cccc(Oc2ccc(F)c(N3CCC4(CC3)CNCCO4)c2)c1 [Example 10, 9-[2-fluoro-5-(3-fluorophenoxy)phenyl]-1-oxa-4,9-diazaspiro[5.5]undecane] | 7.56 | 6.07 | 5.32 | 5.6
Fc1cccc(Oc2cc(N3CCC4(CC3)CNCCO4)ccc2F)c1 [Example 11, 9-[4-fluoro-3-(3-fluorophenoxy)phenyl]-1-oxa-4,9-diazaspiro[5.5]undecane] | 6.78 | 5.72 | 6.22 | 6.5
Fc1cccc(Oc2cc(F)c(F)c(N3CCC4(CC3)CNCCO4)c2)c1 [Example 13, 9-[2,3-difluoro-5-(3-fluorophenoxy)phenyl]-1-oxa-4,9-diazaspiro[5.5]undecane] | 8.38 | 6.74 | 6.33 | 5.6
Fc1c(Oc2ccccc2)cccc1N1CCC2(CC1)CNCCO2 [Example 17, 9-(2-fluoro-3-phenoxyphenyl)-1-oxa-4,9-diazaspiro[5.5]undecane] | 8.42 | 6.46 | 5.65 | 5.4
Fc1cccc(Oc2cccc(N3CCC4(CC3)CNCCO4)c2F)c1 [Example 19, 9-[2-fluoro-3-(3-fluorophenoxy)phenyl]-1-oxa-4,9-diazaspiro[5.5]undecane] | 8.64 | 7.01 | 5.99 | 5.4
Fc1cccc(Oc2cc(F)cc(N3CCC4(CC3)CNCCO4)c2F)c1 [Example 21, 9-[2,5-difluoro-3-(3-fluorophenoxy)phenyl]-1-oxa-4,9-diazaspiro[5.5]undecane] | 9.11 | 7.49 | 6.48 | 5.4
N#Cc1cc(Oc2ccccc2)cc(N2CCC3(CC2)CNCCO3)c1 [Example 25, 3-{1-oxa-4,9-diazaspiro[5.5]undecan-9-yl}-5-phenoxybenzonitrile] | 8.66 | 7.19 | 7.43 | 6.1
Cl.Fc1cccc(Oc2cc(C(F)(F)F)cc(N3CCC4(CC3)CNCCO4)n2)c1 [Example 37, 9-[6-(3-fluorophenoxy)-4-(trifluoromethyl)pyridin-2-yl]-1-oxa-4,9-diazaspiro[5.5]undecane hydrochloride] | 8.86 | 7.07 | 5.33 | 5.9
Cl.Fc1cccc(Oc2cncc(N3CCC4(CC3)CNCCO4)n2)c1 [Example 41, 9-[6-(3-fluorophenoxy)pyrazin-2-yl]-1-oxa-4,9-diazaspiro[5.5]undecane hydrochloride] | 7.44 | 5.33 | 6.02 | 5.9
Cl.O=C1CCNCC12CCN(c1nc(Oc3cccc(F)c3)cc(C(F)(F)F)n1)C2 (centres unmarked) [Example 88, 2-[4-(3-fluorophenoxy)-6-(trifluoromethyl)pyrimidin-2-yl]-2,7-diazaspiro[4.5]decan-10-one hydrochloride] | 8.15 | 6.55 | 4.48 | –
Cl.Fc1cccc(Oc2cc(F)c(F)cc2N2CCC3(CCNCC34OCCO4)C2)c1 (centres unmarked) [Example 94, 8-[4,5-difluoro-2-(3-fluorophenoxy)phenyl]-1,4-dioxa-8,13-diazadispiro[4.0.4^6.4^5]tetradecane hydrochloride] | 8.69 | 7.11 | 7.14 | –
Fc1cccc(Oc2cc(C(F)(F)F)nc(N3CC4(CNCCO4)C3)n2)c1 [Example 102, 2-[4-(3-fluorophenoxy)-6-(trifluoromethyl)pyrimidin-2-yl]-5-oxa-2,8-diazaspiro[3.5]nonane] | 8.00 | 6.22 | 4.00 | –
